Laboratory results reported in patent US20020133837A1, “Transgenic animals at a nuclear hormone receptor locus” (priority 2001, published 2002).
“Also recorded” adds a separate entry of the source.

Tested on: inbred transgenic mice with mutant thyroid hormone receptor beta (TRβPV) and wild-type mice
Test: Behavioral analysis of locomotor activity (light beam breaks) after methylphenidate
Assay type: in vivo, mouse
Settings: methylphenidate 7.5 mg/kg or 30.0 mg/kg on day 3, activity assessed for 3 hours following injection
Procedure: Animals were kept on a light-dark schedule of 12 hours with lights on at 6:00 a.m. Behavioral tests were started between 4:30 p.m. and 5:30 p.m. Eleven-to sixteen-week-old mice were assessed in a 15×30 cm cage with four light beams crossing the cage on the long axis. Locomotor activity was measured by computer-automated counting of the number of times a light beam was blocked (San Diego Instruments, San Diego, Calif.). Activity was measured for 3 hours upon introduction of each animal to the chamber on day 1 to measure baseline/novel behavior levels (see FIG. 3), and the animals remained in the chambers for the length of the experiment (3 days) to permit drug response in an acclimated environment. On day 2, animals were injected with saline (i.p),and on day 3 with methylphenidate (7.5 mg/kg or 30.0 mg/kg). Food and water were provided ad libitum, and activity was assessed for 3 hours following injection. Activity scores were subjected to analysis of variance (ANOVA) analysis to compare the groups by genotype and injection status.

SMILES: COC(=O)C(c1ccccc1)C1CCCCN1 (centres unmarked) [methylphenidate]
- level of locomotor activity in response to methylphenidate (heterozygous and homozygous TRβ PV mutant inbred mice): decreased levels of activity; also recorded: responded to treatment; also recorded: reduced their level of activity; also recorded: level of activity in these mice was reduced
- level of locomotor activity in response to methylphenidate (wild-type mice): increase in activity
